Experimental data as given in patent US12508246B2, “Uses of complex of angiotensin II receptor antagonist metabolite and NEP inhibitor in treating heart failure” (SHENZHEN SALUBRIS PHARMACEUTICALS CO. LTD, priority 2019, dated 2025).
“And” between values parts separate entries of the source, which are not always exact repeats. Identical values can stand only once. Marks after values point to notes of the source that are not given here.

How the values were obtained:
[1] = test system: dogs with heart failure (reduced ejection fraction); experiment: Pharmacodynamic study in the canine chronic heart failure model-reduced ejection fraction (LAD ligation, echocardiography); assay type: in vivo; conditions: HFrEF dog model; 100 mpk (mix: EXP3174 52 mpk + sacubitril 48 mpk) p.o. qd, from 3 d after modeling for 6 weeks; Mean ± SD; model 35.82, sham 66.20
Protocol: 4.1 Methods: After the animals arrived at the facility, they were on adaptive feeding, and randomized after echocardiography and ECG, and then the experiment was started. On the day of operation, animals were anesthetized by intramuscular injection of Zoletil (5 mg/kg). The trachea of the anesthetized dogs were connected to the ventilator, and then they were fixed in a supine position, their chest was opened between the third and fourth ribs, the left anterior descending coronary artery was ligated to close the thoracic cavity, and then the skin was sutured. After the animals recovered for 3 days after operation, they were given therapeutic drugs by gavage, once a day for […] consecutive weeks. During the experiment, animal's living conditions were observed every day, and their abnormal conditions were recorded. After 42 days of dosing, echocardiography was performed.
4.2 Modeling: On the day before operation, the animals were fasted overnight. On the day of operation, the animals were intramuscularly injected with Zoletil (dose: 5 mg/kg) to induce anesthesia, and also were intramuscularly administered with atropine sulfate injection (dose: 0.5 mg/dog). After the animals were anesthetized, their hair on the left chest was shaved clean. […]

[2] = test system: dogs with heart failure (preserved ejection fraction); experiment: Pharmacodynamic study in the canine chronic heart failure model-preserved ejection fraction (LAD ligation, echocardiography); assay type: in vivo; conditions: HFpEF dog model; 100 mpk (mix: EXP3174 52 mpk + sacubitril 48 mpk) p.o. qd, from 3 d after modeling for 2 weeks; Mean ± SD; model 51.80, sham 68.15
Protocol: 5.1 Methods: After the animals arrived at the facility, they were on adaptive feeding, and randomized after echocardiography and ECG, and then the experiment was started. On the day of operation, animals were anesthetized by intramuscular injection of Zoletil (5 mg/kg). The tracheae of the anesthetized dogs were connected to the ventilator, and then they were fixed in a supine position; their chests were opened between the third and fourth ribs, the left anterior descending coronary artery was ligated to close the thoracic cavity, and then the skin was sutured. After the animals recovered for 3 days after operation, they were given therapeutic drugs by gavage, once a day for two consecutive weeks. During the experiment, the animals' living conditions were observed every day, and their abnormal conditions were recorded. After 14 days of dosing, echocardiography was performed.
5.2 Modeling: On the day before operation, the animals were fasted overnight. On the day of operation, the animals were intramuscularly injected with Zoletil (dose: 5 mg/kg) to induce anesthesia, and also were intramuscularly administered with atropine sulfate injection (dose: 0.5 mg/dog). After the animals were anesthetized, their hair on the left chest was shaved clean. […]

Row | Substance | endpoint left ventricular ejection fraction LVEF (%) [1] | endpoint left ventricular ejection fraction LVEF (%) [2]
1 | (EXP3174·AHU377)^3−·1.5 Ca^2+·2H2O [Complex of the invention] | 51.87 ± 1.01***^@$ % | 58.04 ± 1.29***^@ %
2 | Valsartan-Sacubitril sodium salt complex [LCZ696] | 46.45% and 46.45 ± 3.39 % | 57.98% and 57.98 ± 2.64 %
